Results: US20250230413A1, “METHODS AND SYSTEMS FOR THE CULTURE OF CELLS AT LIQUID-LIQUID INTERFACES” (Queen Mary University of London, priority 2022, published 2025)

Key:
iPSCs = experiment: Cardiomyocyte differentiation of iPSCs on βLG-SMCC-VN microdroplets or EBs, flow cytometry of TNNT2+; format: cell-based, human; details: differentiation initiated 2 days after seeding, CDM3 medium
Description: Embryoid bodies Formation. Polyvinyl alcohol (PVA) was dissolved in E8 flex medium overnight to achieve a concentration of 4% PVA. This was then filtered and supplemented with 10 μM Y-27632. iPSCs were dissociated with Gentle Cell Dissociation Reagent according to manufacturer's instructions. After centrifugation, cells were counted. An aliquot of the cell suspension is then taken and centrifuged at 120×g for 3 minutes. The cell pellet was then resuspended in E8 flex with PVA and Y-27632 to achieve a cell concentration of 1×10^6 cells/mL. A petri dish was then filled with sterile water. The lid was then placed upside down and multiple 10 μL drops of the cell suspension was then placed on the lid. The lid was then placed back on the petri dish resulting in hanging droplets. After 24 hours, 30 embryoid bodies were transferred to a well of an ultra-low attachment 6-well plate filled with E8 flex medium.
Cardiomyocyte Differentiation. The iPSCs were seeded on microdroplets and tissue culture plastic controls in E8 flex medium supplemented with Y-27632, a ROCK inhibitor. After 24 hours, the medium was replaced with E8 flex medium. […]
Flow Cytometry. […] Cells were then counted and stained with the staining solution for surface markers. […] Stained cells were analysed with BD LSRII. […] The data was analysed using FlowJo software.

MSCs [1] = experiment: Scale-up growth of MSCs on fluorinated oil/MA-BSA bioemulsions in 250 ml flask; format: cell-based, human; details: 15 days, 250 ml flask under agitation
Description: (§1) Human Bone Marrow Derived Mesenchymal Stem Cell culture and seeding. hBM-MSCs were purchased from PromoCell and cultured according to the supplier's recommendations.
RGD peptide coupling to biofunctionalised BSA. For the preparation of emulsions, RGD peptide coupling to functionalized BSA molecules was performed first. RGD peptide concentration was determined for each functionalized BSA formulation to enable coupling of 10 peptides per BSA molecule. Custom peptides were designed to allow reaction with functional groups in the modified BSA backbone. GCGGRGDSPG peptide was coupled to NB-BSA via […] in the presence of 1% lithium phenyl-2,4,6-trimethylbenzoylphosphinate (LAP, Sigma-Aldrich), crosslinking was performed with 405 nm blue light for 3 min. at 20 mW/cm2. CGGRGDSPG peptide was conjugated to AC-BSA and MA-BSA via […] in PBS pH 9 for at least 3 hours. The same procedure was used for FITC-RGD bearing peptides.
Conical flask bioreactor scale-up. Scale up of the MA-BSA bioemulsions system was performed on 250 ml polycarbonate Erlenmeyer flasks (Corning) with Vent caps, using a total amount of medium of 50 ml. […] Cell numbers/surface area used in bioemulsions and 2D conditions were the same (1000 cells/cm^2) and calculated assuming and average diameter of 100 μm for the bioemulsions. […]

HEK293T cells = details: HEK293T on BSA interfaces for 22 days
Description: Cell seeding on emulsions. HEK293T cells, human iPSCs, Human primary keratinocytes and human MSCs were cultured according to manufacturer's instructions. For cell culture, 500 μL of corresponding medium was transferred per well in a 24 well plate treated with 25 μg/mL poly(L-lysine)-graft-polyethylene glycol (PLL-g-PEG, SuSoS). Then, 100 μL of emulsion were transferred per well. Different cell densities were used depending on the cell type. Being 10^4 cells/well for HEK293T, 4×10^4 cells/well for iPSCs, and 4×10^4 cells/well for MSCs.
Proliferation assay CCK8. Proliferation assays were performed using the Cell Counting Kit-8 (Dojindo, Kumamoto, Japan). HEK293T growing on emulsions were incubated with 100 μl CCK-8 reagent for 4 hours at 37° C. over different time-points, and optical density at 450 nm was measured.

MSCs [2] = experiment: Growth of MSCs at crosslinked βLG and BSA nanosheets (Novec 7500 interfaces); format: cell-based, human; details: MSCs growing for 5 days; interfaces crosslinked by sulfo-SMCC (1 mg/ml, pH 7.4), fibronectin coupled
Description: as §1
Generation of fluorinated pinned droplets for cell culture. Thin glass slides (25×60 mm, VWR) were washed with isopropanol and dried under nitrogen, prior to plasma oxidation for 10 min (Henniker Plasma HPT-200). Slides were then placed into an anhydrous ethanol solution (9.5 mL) containing trichloro-1H,1H,2H,2H-perfluorooctyl silane (97%, Sigma-Aldrich) (500 μL) for 1 h, at room temperature. The fluorinated glass slides were cut into chips (1×1 cm) and placed into a 24 well plate (for Hoechst staining), or the glass slides were kept at their original dimensions and embedded on sticky-slide 8 wells plates (Ibidi), for imaging on a confocal microscope. After sterilization with 70% ethanol, the wells were washed (once) and then filled with 2 mL (or 600 μL for the sticky wells) of PBS (pH 7.4 for βLG, Fibrinogen and different BSA types, and pH 10.5 for poly(L-lysine), PLL). 100 μL of fluorinated oil (or 10 μL for the sticky wells), with or without fluorinated surfactant (10 μg/mL) were added to the surface of the glass slide, forming a fluorinated pinned droplet. For samples prepared in 24 well plates, 30 μL of the oil phase was removed using a micropipette, to form a flatter oil droplet. […]
Immuno-fluorescence staining.

With Cc1c[nH]c(-c2cnc(NCCNc3ccc(C#N)cn3)nc2-c2ccc(Cl)cc2Cl)n1 [CHIR99021] as the compound, how does the “Percentage of TNNT2+ (whether differentiation works)” value (iPSCs; CHIR99021 6 μM, varying Wnt-C59) read?
Its value is “consistently works across conditions except for 230 μm microdroplets when 5 μM of Wnt-C59 is used”.

And the “Percentage of TNNT2+ (whether differentiation works)” value (iPSCs; higher CHIR99021 concentration (above 6 μM))?
Its value is “only works for microdroplets and only when followed by 5 μM Wnt-C59”.

With MS-BSA: methacrylated BSA as the compound, how does the “coverage of bioemulsion surface by cells” value (MSCs [1]) read?
The value was “cells cover all the available surface of the bioemulsions”.

How did the “proliferation after long-term culture” value (HEK293T cells) turn out when Bovine Serum Albumin [BSA] was run?
The value was “high proliferation”.

What about the “cell adhesion to the interface (vinculin staining)” value (MSCs [2]) of the same compound?
Its value is “excellent cell adhesion”.
